Consider two compounds from PMC8315011, “The Spleen Tyrosine Kinase Inhibitor, Entospletinib (GS-9973) Restores Chemosensitivity in Lung Cancer Cells by Modulating ABCG2-mediated Multidrug Resistance” (International Journal of Biological Sciences, 2021).

Data set [1] concerns the target T1, ABCG2 (Homo sapiens, UniProt Q9UNQ0).
T1 sequence (Q9UNQ0 1-655): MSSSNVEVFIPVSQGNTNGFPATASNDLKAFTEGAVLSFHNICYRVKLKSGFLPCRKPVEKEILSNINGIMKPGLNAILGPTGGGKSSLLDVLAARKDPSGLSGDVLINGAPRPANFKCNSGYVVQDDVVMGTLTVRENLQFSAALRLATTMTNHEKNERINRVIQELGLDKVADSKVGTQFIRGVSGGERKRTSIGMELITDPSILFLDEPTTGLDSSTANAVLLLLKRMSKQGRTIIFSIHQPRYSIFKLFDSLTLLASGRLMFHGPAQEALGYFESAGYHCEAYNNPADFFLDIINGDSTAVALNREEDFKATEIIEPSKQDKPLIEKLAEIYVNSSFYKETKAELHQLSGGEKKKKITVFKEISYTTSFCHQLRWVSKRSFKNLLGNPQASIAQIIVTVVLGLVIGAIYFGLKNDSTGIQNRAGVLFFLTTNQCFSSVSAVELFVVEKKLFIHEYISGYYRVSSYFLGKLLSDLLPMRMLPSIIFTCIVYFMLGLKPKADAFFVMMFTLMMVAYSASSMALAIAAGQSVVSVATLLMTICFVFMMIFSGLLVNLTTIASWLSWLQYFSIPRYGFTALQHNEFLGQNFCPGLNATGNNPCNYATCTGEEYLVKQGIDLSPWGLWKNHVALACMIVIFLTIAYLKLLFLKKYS

The target in data set [2] is T1, ABCG2. Kind of data set: ABCG2 ATPase stimulation in membrane vesicles ([…] of basal); supported by inhibition of [3H]-mitoxantrone efflux in NCI-H460/MX20 cells at […]. Type of data set: biochemical. Also on record: membrane vesicles with ABCG2 (PREDEASY ATPase kit).

Turning to `O=C1c2c(O)ccc(O)c2C(=O)c2c(NCCNCCO)ccc(NCCNCCO)c21` [mitoxantrone], the “radiolabelled substrate accumulation and efflux, parental vs ABCG2-overexpressin” value in data set [1] is “proving that the efflux of [^3H]-mitoxantrone was mediated by the ABCG2 transporter”.

Usually EC50 stands for the concentration needed to bring the measured effect to its halfway point. High values mean lower potency in that assay, low ones higher potency in that assay. As to `c1cn2cc(-c3ccc4cn[nH]c4c3)nc(Nc3ccc(N4CCOCC4)cc3)c2n1` [GS-9973], the half-maximal effective concentration (EC50) in data set [2] was 420 nM.
